The values below come from patent US4443436A, “C-20-Modified macrolide derivatives of the macrolide antibiotics tylosin, desmycosin, macrocin, and lactenocin” (Eli Lilly and Company, priority 1982, dated 1984).

As a reminder, the ED50 is the dose that gives a 50% effect, or the effect in half of the subjects.

Values after ≈ are worked out from the molar mass of the structure shown. Read-outs that look alike come from different tables or passages of the source. Where only a bound is given, the exact number is not on record here.

In assay [1] the test system is Pasteurella multocida 17E. In words: MIC, broth-dilution microtiter test, Pasteurella multocida 17E. It counts as cell-based. The source says:
(§1) The MIC's in Table X were obtained using conventional broth-dilution microtiter tests.

Assay [2] deals with Staphylococcus aureus V41. The experiment in a line: MIC, standard agar-dilution assay, Staphylococcus aureus V41. The format is cell-based.
The test system of assay [3] is Streptococcus pneumoniae Park I. In words: microbe, parasite or virus in culture. The format is cell-based. Conditions: Streptococcus pneumoniae Park I, agar dilution. A general note: In agar dilution the substance is mixed into plates at graded concentrations.
Assay [4] deals with Staphylococcus aureus X1.1. In words: MIC, standard agar-dilution assay, Staphylococcus aureus X1.1. It counts as cell-based.
For assay [5], the system named is Streptococcus pyogenes C203. In words: MIC, standard agar-dilution assay, Streptococcus pyogenes C203. The format is cell-based.
The test system of assay [6] is Staphylococcus epidermidis EPI1. In words: MIC, standard agar-dilution assay, Staphylococcus epidermidis EPI1. The format is cell-based.
For the next assay, the system named is Staphylococcus aureus. The experiment in a line: MIC, broth-dilution microtiter test, Staphylococcus aureus. The format is cell-based.
Text: as §1

The subject of another assay is Streptococcus Group 9960. In words: MIC, standard agar-dilution assay, Streptococcus Group 9960. The format is cell-based. As to conditions: Streptococcus Group 9960, agar dilution.
The next assay deals with Mycoplasma gallisepticum. In words: MIC, broth-dilution microtiter test, Mycoplasma gallisepticum. It counts as cell-based.
Text: as §1

The next assay has as its system Mycoplasma hyorhinis. The experiment in a line: MIC, broth-dilution microtiter test, Mycoplasma hyorhinis. It counts as cell-based.
Text: as §1

In assay [7] the test system is Staphylococcus epidermidis EPI2. The experiment in a line: MIC, standard agar-dilution assay, Staphylococcus epidermidis EPI2. It counts as cell-based.
Assay [8] has as its system Staphylococcus aureus S13E. The experiment in a line: MIC, standard agar-dilution assay, Staphylococcus aureus S13E. It counts as cell-based.
For assay [9], the system named is Pasteurella multocida 60A. The experiment in a line: MIC, broth-dilution microtiter test, Pasteurella multocida 60A. It counts as cell-based.
Text: as §1

Assay [10] relates to Haemophilus influenzae Holt. In words: MIC, standard agar-dilution assay, Haemophilus influenzae Holt. The format is cell-based. As to conditions: Haemophilus influenzae Holt, ampicillin-sensitive strain.
A further assay concerns Streptococcus bovis 80. The experiment in a line: MIC, broth-dilution microtiter test, Streptococcus bovis 80. It counts as cell-based.
Text: as §1

Assay [11] relates to Haemophilus influenzae R252. The experiment in a line: MIC, standard agar-dilution assay, Haemophilus influenzae R252. It counts as cell-based. As to conditions: Haemophilus influenzae R252, ampicillin-resistant strain.
Assay [12] has as its system Pasteurella hemolytica 22C. In words: MIC, broth-dilution microtiter test, Pasteurella hemolytica 22C. The format is cell-based. Conditions: Pasteurella hemolytica 22C, broth-dilution microtiter.
Text: as §1

The next assay concerns Mycoplasma synoviae. The experiment in a line: MIC, broth-dilution microtiter test, Mycoplasma synoviae. The format is cell-based.
Text: as §1

In assay [13] the test system is Streptococcus Group D X66. The experiment in a line: MIC, standard agar-dilution assay, Streptococcus Group D X66. The format is cell-based. As to conditions: Streptococcus Group D X66, agar dilution.
For assay [14], the system named is Staphylococcus aureus X400. In words: MIC, standard agar-dilution assay, Staphylococcus aureus X400. It counts as cell-based.
The test system of assay [15] is Streptococcus pyogenes C203. The experiment in a line: In vivo protection of mice experimentally infected with S. pyogenes C203. As to conditions: mice, doses given 1 and 4 hours post-infection. On the procedure: The C-20 modified derivatives of this invention have shown in vivo antimicrobial activity against experimentally-induced infections in laboratory animals. When two doses of test compound were administered to mice experimentally infected with S. pyogenes C203, the activity observed was measured as an ED50 value [effective dose in mg/kg to protect 50% of the test animals: see Warren Wick, et al., J. Bacteriol. 81, 233-235 (1961)].

The mark [16] stands for this setting: Staphylococcus epidermidis, EPI1.
Where [17] appears, read: Staphylococcus epidermidis, EPI2.

As for `CCC1OC(=O)CC(O)C(C)C(OC2OC(C)C(O)C(N(C)C)C2O)C(CCO[N+](=O)[O-])CC(C)C(=O)C=CC(C)=CC1COC1OC(C)C(O)C(OC)C1OC` (stereo not drawn) [Compound 28, 20-DH-20-O-NO2-desmycosin], the MIC in assay [1] (Pasteurella multocida 17E, bovine isolate, broth-dilution microtiter, read-out: MIC) is 25 µg/mL (≈ 30.5 µM); in assay [2] (Staphylococcus aureus, V41), 0.25 µg/mL (≈ 0.305 µM); in assay [3] (read-out: MIC), 2 µg/mL (≈ 2.44 µM); in [4] (Staphylococcus aureus, X1.1) it was 0.25 µg/mL (≈ 0.305 µM); in assay [5] (Streptococcus pyogenes, C203), 0.25 µg/mL (≈ 0.305 µM); in assay [6] (setting [16]) it was 0.25 µg/mL (≈ 0.305 µM). For the same compound, the MIC in the assay with Staphylococcus aureus (broth-dilution microtiter, read-out: MIC) came out at 1.56 µg/mL (≈ 1.9 µM); in the assay on Streptococcus Group 9960 (GROUP9960, read-out: MIC), 8 µg/mL (≈ 9.77 µM); in the assay on Mycoplasma gallisepticum (Mycoplasmoides gallisepticum, Mycoplasma gallisepticum, broth-dilution microtiter, read-out: MIC) it was 0.78 µg/mL (≈ 0.952 µM); against Mycoplasma hyorhinis (Mycoplasma), 50 µg/mL (≈ 61.1 µM); in [7] (setting [17]), 0.25 µg/mL (≈ 0.305 µM); in [8] (Staphylococcus aureus, S13E), 0.25 µg/mL (≈ 0.305 µM). The MIC in assay [9] (Pasteurella multocida, 60A) is 50 µg/mL (≈ 61.1 µM); in assay [10] (read-out: MIC) it was 16 µg/mL (≈ 19.5 µM); in the assay on Streptococcus bovis 80 (Streptococcus equinus, Streptococcus bovis 80, broth-dilution microtiter, read-out: MIC) it was 12.5 µg/mL (≈ 15.3 µM); in [11] (read-out: MIC) it was 16 µg/mL (≈ 19.5 µM); in [12] (read-out: MIC), 25 µg/mL (≈ 30.5 µM); in the assay on Mycoplasma synoviae (Mycoplasmopsis synoviae, Mycoplasma synoviae, broth-dilution microtiter, read-out: MIC), 0.78 µg/mL (≈ 0.952 µM). Also, the MIC in [13] (read-out: MIC) is 8 µg/mL (≈ 9.77 µM); in assay [14] (Staphylococcus aureus, X400), 0.25 µg/mL (≈ 0.305 µM).
In the case of `CCC1OC(=O)CC(O)C(C)C(OC2OC(C)C(OC3CC(C)(O)C(O)C(C)O3)C(N(C)C)C2O)C(C)CC(C)C(=O)C=CC(C)=CC1COC1OC(C)C(O)C(O)C1OC` (stereo not drawn) [Compound 54, 20-Deformylmacrocin], the MIC is more than 50 µg/mL in assay [1] (Pasteurella multocida, 17E); 1 µg/mL (≈ 1.14 µM) in [2] (Staphylococcus aureus, V41); 64 µg/mL (≈ 73.2 µM) in [3] (read-out: MIC); 2 µg/mL (≈ 2.29 µM) in assay [4] (Staphylococcus aureus, X1.1); 2 µg/mL (≈ 2.29 µM) in assay [5] (Streptococcus pyogenes, C203); 2 µg/mL (≈ 2.29 µM) in assay [6] (setting [16]). Also, the MIC amounted to 3.12 µg/mL (≈ 3.57 µM) with Staphylococcus aureus; 28 µg/mL (≈ 32 µM) in the assay on Streptococcus Group 9960 (GROUP9960, read-out: MIC); 0.78 µg/mL (≈ 0.892 µM) with Mycoplasma gallisepticum (Mycoplasmoides gallisepticum); 25 µg/mL (≈ 28.6 µM) in the assay with Mycoplasma hyorhinis (Mycoplasma); 2 µg/mL (≈ 2.29 µM) in assay [7] (setting [17]); 2 µg/mL (≈ 2.29 µM) in [8] (Staphylococcus aureus, S13E). Also, the MIC in assay [9] (Pasteurella multocida 60A, avian isolate, broth-dilution microtiter, read-out: MIC) was more than 50 µg/mL; in assay [10] (read-out: MIC), more than 128 µg/mL; against Streptococcus bovis 80 (Streptococcus equinus, 80), 6.25 µg/mL (≈ 7.15 µM); in assay [11] (read-out: MIC), more than 128 µg/mL; in [12] (read-out: MIC) it was more than 50 µg/mL; with Mycoplasma synoviae (Mycoplasmopsis synoviae), 1.56 µg/mL (≈ 1.78 µM). Besides, the MIC was determined as 128 µg/mL (≈ 146 µM) in [13] (read-out: MIC) and 2 µg/mL (≈ 2.29 µM) in assay [14] (Staphylococcus aureus, X400). Also, the ED50 in [15] (Streptococcus pyogenes, C203, oral, read-out: ED50, Oral) worked out at 31 mg/kg.
Turning to `CCC1OC(=O)CC(O)C(C)C(OC2OC(C)C(O)C(N(C)C)C2O)C(CCOc2nnc(-c3ccccc3)c(-c3ccccc3)n2)CC(C)C(=O)C=CC(C)=CC1COC1OC(C)C(O)C(OC)C1OC` (stereo not drawn) [Compound 50, 20-DH-20-O-(5,6-Diphenyl-1,2,4-triazin-3-yl)desmycosin], the MIC was determined as 25 µg/mL (≈ 24.9 µM) in assay [1] (Pasteurella multocida 17E, bovine isolate, broth-dilution microtiter); 0.5 µg/mL (≈ 0.497 µM) in [2] (Staphylococcus aureus V41, penicillin-resistant strain, agar dilution); 0.5 µg/mL (≈ 0.497 µM) in assay [3]; 0.5 µg/mL (≈ 0.497 µM) in assay [4] (Staphylococcus aureus X1.1, agar dilution); 0.5 µg/mL (≈ 0.497 µM) in [5] (Streptococcus pyogenes C203, agar dilution); 0.5 µg/mL (≈ 0.497 µM) in assay [6] (Staphylococcus epidermidis EPI1, agar dilution). Besides, the MIC is 1.56 µg/mL (≈ 1.55 µM) with Staphylococcus aureus (broth-dilution microtiter); 4 µg/mL (≈ 3.98 µM) in the assay with Streptococcus Group 9960; not above 0.048 µg/mL in the assay on Mycoplasma gallisepticum (Mycoplasma gallisepticum, broth-dilution microtiter); 12.5 µg/mL (≈ 12.4 µM) against Mycoplasma hyorhinis (Mycoplasma hyorhinis, broth-dilution microtiter); 0.5 µg/mL (≈ 0.497 µM) in [7] (Staphylococcus epidermidis EPI2, agar dilution); 0.5 µg/mL (≈ 0.497 µM) in assay [8] (Staphylococcus aureus S13E, agar dilution). Further, the MIC is 25 µg/mL (≈ 24.9 µM) in assay [9] (Pasteurella multocida 60A, avian isolate, broth-dilution microtiter); 64 µg/mL (≈ 63.7 µM) in [10] (agar dilution); 3.12 µg/mL (≈ 3.1 µM) against Streptococcus bovis 80 (Streptococcus bovis 80, broth-dilution microtiter); 64 µg/mL (≈ 63.7 µM) in assay [11] (agar dilution); “-- (Not active at 50 mcg/ml, the highest level tested)” in assay [12]; 0.39 µg/mL (≈ 0.388 µM) in the assay with Mycoplasma synoviae (Mycoplasma synoviae, broth-dilution microtiter). Moreover, the MIC in assay [13] worked out at 4 µg/mL (≈ 3.98 µM); in assay [14] (Staphylococcus aureus X400, methicillin-resistant strain, agar dilution) it was 1 µg/mL (≈ 0.995 µM). In addition, the “ED50, Oral” value in assay [15] (oral) was more than 50 mg/kg × 2. In addition, the “ED50, Subcutaneous” value in assay [15] (subcutaneous) is listed as more than 10 mg/kg × 2.
